# Results published in patent publication US6156789A, “Method for treating abnormal cell proliferation in the brain” (Rhone-Poulenc Rorer S.A., priority 1998, dated 2000).
# Where “and” joins values, the source holds several entries; their conditions need not be identical. Equal values may be shown once. Read-outs that look alike come from different tables or passages of the source.
# Test: Tissue distribution of Compound A in mice with mammary C/16 adenocarcinomas (first method: liver, heart, kidney, lung, spleen, tumor)
# Format: in vivo, C3H/HeN female mice
# Set-up: key to Percentage of Compound A (of dose) in Liver / Percentage of Compound A (of dose) in Heart / Percentage of Compound A (of dose) in Kidney / Percentage of Compound A (of dose) in Lung / Percentage of Compound A (of dose) in Spleen / Percentage of Compound A (of dose) in Tumor: --: not detected
# Details: for Kp at 0.5 h: 0.50 h
# Procedure: Mammary C/16 adenocarcinomas were implanted in C3H/HeN female mice. At least 7 days later, 4α,10β-diacetoxy-2α-benzoyloxy-5β,20-epoxy-1β-hydroxy-7β,8β-methylene-9-oxo-19-nor-11-taxen-13α-yl (2R,3S)-3-tert-butoxycarbonylamino-2-hydroxy-3-phenylpropionate ("Compound A") was administered to groups of female mice at doses of 9.5, 15.4, 24.8, 40 or 60.5 mg/kg by intravenous injection under 0.4 or 0.5 ml/injection over 15 seconds. The body weight and date of implantation were recorded for each mouse. Blood and tissue samples were taken 2, 5, 15, 30 and 45 minutes and 1, 4, 14, 24 and 48 hours, after administration. The plasma was separated from the blood samples at 4° C. and frozen immediately. The tissue and tumors were weighed and frozen immediately (-20° C.).
# The plasma and tissue samples were then analyzed for the concentration of Compound A. The plasma was assayed by high pressure liquid chromatography with spectrophotometric detection. For the tissue, liver, heart, kidney, lung, spleen and tumor tissue, samples were assayed by a first method, while a second method was used for the brain tissue analyzed. In the first method, 0.2 g of tissue was combined with 2 ml of sodium phosphate buffer 0.1 M (pH:7) and homogenized. The homogenate was centrifuged and 0.5 ml of supernatant was injected into the chromatographic column. In the second method, 10 μl of standard solution was combined with 0.2 g of brain tissue. 2 ml of methanol/5% perchloric acid (50/50) were added and the mixture was homogenized. The homogenate was centrifuged and 100 μl of supernatant was injected into the chromatographic column.
# [1] = 0.033 h, 40 μg/kg [sic], mice with tumors, single mice, 40 mg/kg, 1.98 min
# [2] = mouse, heart/plasma, iv, 40 mg/kg, mice with tumors, single mice, read-out: Tissue/Plasma Ratio, HEART
# [3] = mouse, kidney/plasma, iv, 40 mg/kg, 40 μg/kg [sic], mice with tumors, single mice, read-out: Tissue/Plasma Ratio, KIDNEY
smiles,measurement,setting,value
"CC(=O)O[C@H]1C(=O)[C@]23C[C@H]2C[C@H]2OC[C@@]2(OC(C)=O)[C@H]3[C@H](OC(=O)c2ccccc2)[C@]2(O)C[C@H](OC(=O)[C@H](O)[C@@H](NC(=O)OC(C)(C)C)c3ccccc3)C(C)=C1C2(C)C [Compound A, 4α,10β-diacetoxy-2α-benzoyloxy-5β,20-epoxy-1β-hydroxy-7β,8β-methylene-9-oxo-19-nor-11-taxen-13α-yl (2R,3S)-3-tert-butoxycarbonylamino-2-hydroxy-3-phenylpropionate]",distribution in tissues sampled,40 mg/kg i.v.,quickly distributed in all tissues sampled
same,percentage (concentration) in sampled tissue over time,"40 mg/kg i.v., first few hours, except tumor and brain tissue","fell off rapidly over the first few hours following drug administration, except in the tumor and brain tissue"
same,uptake of the drug,"40 mg/kg i.v., mice with mammary carcinoma",fast uptake of the drug
same,drug present at 0.033 h cleared in one hour,"40 mg/kg i.v., rapid phase, except tumor and brain tissue",70%
same,"Tissue/Plasma Ratio, KIDNEY",[1],1.25 and 1.20
same,"Tissue/Plasma Ratio, LIVER",[1],0.91
same,"Tissue/Plasma Ratio, SPLEEN",[1],0.42 and 0.43 and 0.41
same,Percentage of Compound A (of dose) in Heart,"0.033 h, 40 mg/kg",0.46%
same,Percentage of Compound A (of dose) in Kidney,"0.033 h, 40 mg/kg",2.06%
same,Percentage of Compound A (of dose) in Liver,"0.033 h, 40 mg/kg",9.73%
same,Percentage of Compound A (of dose) in Lung,"0.033 h, 40 mg/kg",0.67%
same,Percentage of Compound A (of dose) in Spleen,"0.033 h, 40 mg/kg",0.27%
same,Percentage of Compound A (of dose) in Tumor,"0.033 h, 40 mg/kg",1.07%
same,"Percentage of Compound A (of dose) in tissues, Total","0.033 h, 40 mg/kg",14.45%
same,"Tissue/Plasma Ratio, LUNG","0.083 h, 40 μg/kg [sic], mice with tumors, single mice, 40 mg/kg, 4.98 min",0.69
same,Percentage of Compound A (of dose) in Heart,"1 h, 40 mg/kg",0.08%
same,Percentage of Compound A (of dose) in Kidney,"1 h, 40 mg/kg",0.56%
same,Percentage of Compound A (of dose) in Liver,"1 h, 40 mg/kg",2.10%
same,Percentage of Compound A (of dose) in Lung,"1 h, 40 mg/kg",0.18%
same,Percentage of Compound A (of dose) in Spleen,"1 h, 40 mg/kg",0.10%
same,Percentage of Compound A (of dose) in Tumor,"1 h, 40 mg/kg",0.94%
same,"Percentage of Compound A (of dose) in tissues, Total","1 h, 40 mg/kg",4.37%
same,Percentage of Compound A (of dose) in Heart,"4 h, 40 mg/kg",0.03%
same,Percentage of Compound A (of dose) in Kidney,"4 h, 40 mg/kg",0.23%
same,Percentage of Compound A (of dose) in Liver,"4 h, 40 mg/kg",0.47%
same,Percentage of Compound A (of dose) in Lung,"4 h, 40 mg/kg",0.08%
same,Percentage of Compound A (of dose) in Spleen,"4 h, 40 mg/kg",0.05%
same,Percentage of Compound A (of dose) in Tumor,"4 h, 40 mg/kg",0.37%
same,"Percentage of Compound A (of dose) in tissues, Total","4 h, 40 mg/kg",1.62%
same,Percentage of Compound A (of dose) in Heart,"24 h, 40 mg/kg",--
same,Percentage of Compound A (of dose) in Kidney,"24 h, 40 mg/kg",--
same,Percentage of Compound A (of dose) in Liver,"24 h, 40 mg/kg",--
same,Percentage of Compound A (of dose) in Lung,"24 h, 40 mg/kg",--
same,Percentage of Compound A (of dose) in Spleen,"24 h, 40 mg/kg",--
same,Percentage of Compound A (of dose) in Tumor,"24 h, 40 mg/kg",0.09%
same,"Percentage of Compound A (of dose) in tissues, Total","24 h, 40 mg/kg",0.42%
same,Percentage of Compound A (of dose) in Heart,"48 h, 40 mg/kg",--
same,Percentage of Compound A (of dose) in Kidney,"48 h, 40 mg/kg",--
same,Percentage of Compound A (of dose) in Liver,"48 h, 40 mg/kg",--
same,Percentage of Compound A (of dose) in Lung,"48 h, 40 mg/kg",--
same,Percentage of Compound A (of dose) in Spleen,"48 h, 40 mg/kg",--
same,Percentage of Compound A (of dose) in Tumor,"48 h, 40 mg/kg",--
same,"Percentage of Compound A (of dose) in tissues, Total","48 h, 40 mg/kg",0.19%
same,"AUC 0-4 Hours, Heart",dose = 40 mg/kg,24.8 µg·h/g
same,"AUC 0-4 Hours, Kidney",dose = 40 mg/kg,74.4 µg·h/g
same,"AUC 0-4 Hours, Liver",dose = 40 mg/kg,70.8 µg·h/g
same,"AUC 0-4 Hours, Lung",dose = 40 mg/kg,34.3 µg·h/g
same,"AUC 0-4 Hours, Spleen",dose = 40 mg/kg,34.6 µg·h/g
same,"AUC 0-4 Hours, Tumor",dose = 40 mg/kg,35.6 µg·h/g
same,"AUC 0 to Infinity, Heart",dose = 40 mg/kg,28 µg·h/g
same,"AUC 0 to Infinity, Kidney",dose = 40 mg/kg,121 µg·h/g
same,"AUC 0 to Infinity, Liver",dose = 40 mg/kg,93 µg·h/g
same,"AUC 0 to Infinity, Lung",dose = 40 mg/kg,52 µg·h/g
same,"AUC 0 to Infinity, Spleen",dose = 40 mg/kg,80 µg·h/g
same,"AUC 0 to Infinity, Tumor",dose = 40 mg/kg,107 µg·h/g
same,half-life,"mouse, heart, iv, 40 mg/kg, read-out: t 1/2, Heart (converted)",96 min
same,Tmax,"mouse, heart, iv, 40 mg/kg i.v., read-out: time of maximum concentration, heart",1.98 min
same,Kp at 0.033 h,"mouse, heart/plasma, iv, 40 mg/kg, 0.033 h, mice with tumors, single mice, read-out: Tissue/Plasma Ratio, HEART",0.45
same,Kp at 0.083 h,"mouse, heart/plasma, iv, 40 mg/kg, 0.083 h, mice with tumors, single mice, read-out: Tissue/Plasma Ratio, HEART",0.98
same,Kp at 0.25 h,[2],0.65
same,Kp at 0.5 h,[2],0.88
same,Kp at 0.75 h,[2],0.87
same,Kp at 1 h,"mouse, heart/plasma, iv, 40 mg/kg, 1 h, mice with tumors, single mice, read-out: Tissue/Plasma Ratio, HEART",0.77
same,half-life,"mouse, kidney, iv, 40 mg/kg, 40 mg/kg i.v., read-out: half-life of the distribution phase, kidney (converted)",3 min
same,half-life,"mouse, kidney, iv, 40 mg/kg, read-out: t 1/2, Kidney (converted)",162 min
same,Tmax,"mouse, kidney, iv, 40 mg/kg i.v., read-out: time of maximum concentration, kidney",1.98 min
same,Kp at 0.033 h,"mouse, kidney/plasma, iv, 40 mg/kg, 0.033 h, 40 μg/kg [sic], mice with tumors, single mice, read-out: Tissue/Plasma Ratio, KIDNEY",1.7
same,Kp at 0.083 h,"mouse, kidney/plasma, iv, 40 mg/kg, 0.083 h, 40 μg/kg [sic], mice with tumors, single mice, read-out: Tissue/Plasma Ratio, KIDNEY",2.4
same,Kp at 0.25 h,[3],1.35
same,Kp at 0.5 h,[3],1.88
same,Kp at 0.75 h,[3],2.44
